Our source for the IC50 values is patent publication US20240417412A1, “HETEROCYCLIC COMPOUNDS AND METHODS OF USE” (AMGEN INC., priority 2022, published 2024).

Assay [1] addresses KRAS G12D (Homo sapiens, UniProt P01116, G12D). The assay can be described thus: KRAS G12D TR-FRET Assay. Particulars: His-tagged KRAS G12D, biotinylated KRPep-2d, read-out: KRAS G12D Binding IC50. Here is the method:
The plate was incubated for 30 minutes at room temperature. Biotinylated KRPep-2d substrate (Amgen) was diluted to 20 nM in Assay Buffer and 2 uL was added to all wells and incubated for 1 hour at room temperature. Detection Reagent (0.4 nM LANCE Eu-W1024 Anti-6×His (Perkin Elmer AD0401), 5 nM streptavidin-d2 (Cisbio 610SADLA)) was prepared in Assay Buffer, then 4 μL was added to the plate and incubated for 1 hour at room temperature.

The target of assay [2] is KRAS G12D (Homo sapiens, UniProt P01116, C118A/G12D). The assay can be described thus: KRAS G12D Coupled Nucleotide Exchange Assay. It counts as biochemical. As to conditions: GDP-bound KRAS G12D/C118A, 2 hours pre-incubation, SOS-mediated nucleotide exchange, AlphaScreen. As for the experimental part: The assay plates were then read on a PerkinElmer EnVision Multilabel Reader, using AlphaScreen® technology, and data were analyzed using a 4-parameter logistic model to calculate IC50 values.

The test system of another assay is p-ERK (AsPC-1 cells). The assay can be described thus: Phospho-ERK1/2 MSD Assay. Type of assay: cell-based. As for the experimental part:
Sixteen hours prior to compound treatment, AsPC-1 cells were seeded in 96-well cell culture plates at a density of 25,000 cells/well and incubated at 37° C., 5% CO2. A compound dose-response titration was diluted in growth media, added to appropriate wells of a cell culture plate, and then incubated at 37° C., 5% CO2 for 2 hours. […] Phosphorylation of ERK1/2 in compound-treated lysates was assayed using Phospho-ERK1/2 Whole Cell Lysate kits (Meso Scale Discovery K151DWD) according to the manufacturer's protocol. Assay plates were read on a Meso Scale Discovery Sector Imager 6000, and data were analyzed using a 4-parameter logistic model to calculate IC50 values.

Setting [3] is: Homo sapiens, ASPC1, 2 h, read-out: 2 h p-ERK (AsPC-1 cells), IC50 (μM), AsPC-1 cells, 2 hours compound treatment.
Setting [4] is: read-out: 2 h p-ERK (AsPC-1 cells), IC50, AsPC-1 cells, 2 hours compound treatment.

Where two headings read alike, the source gives them in different places.

KRAS G12D (Homo sapiens, UniProt P01116, G12D), sequence (P01116 1-188 isoform P01116-2 G12D): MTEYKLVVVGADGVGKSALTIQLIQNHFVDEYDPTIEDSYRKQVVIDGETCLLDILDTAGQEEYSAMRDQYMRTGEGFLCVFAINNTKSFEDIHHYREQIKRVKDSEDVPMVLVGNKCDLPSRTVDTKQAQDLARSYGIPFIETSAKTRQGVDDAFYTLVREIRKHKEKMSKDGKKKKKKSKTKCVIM
KRAS G12D (Homo sapiens, UniProt P01116, C118A/G12D), sequence (P01116 1-169 isoform P01116-2 G12D/C118A): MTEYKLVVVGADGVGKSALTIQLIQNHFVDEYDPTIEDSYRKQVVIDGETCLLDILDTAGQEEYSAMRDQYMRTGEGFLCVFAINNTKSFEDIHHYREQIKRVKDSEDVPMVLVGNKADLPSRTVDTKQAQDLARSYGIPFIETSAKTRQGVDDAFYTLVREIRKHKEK

Take `Oc1cc(Cl)c(C2CC2)c(-c2ncc3c(N4CCCC5(CC(O)C5)C4)nc(OC[C@@]45CCCN4C[C@H](F)C5)nc3c2F)c1` (single isomer, unassigned) [Example 14]: the IC50 was found to be 1 nM on KRAS G12D [1], 1 nM at KRAS G12D [2] and 0.164 µM with p-ERK (AsPC-1 cells) (setting [3]).

In the case of `CCc1c(F)ccc2cc(O)cc(-c3ncc4c(N5CCCC6(C5)CC(C)(O)C6)nc(OC[C@@]56CCCN5C[C@H](F)C6)nc4c3F)c12` (single isomer, unassigned) [Example 56], the IC50 on KRAS G12D [1] is 4 nM; against KRAS G12D [2], 6 nM; with p-ERK (AsPC-1 cells) (setting [4]), 0.343 µM.

On to `CCc1c(F)ccc2cc(O)cc(-c3ncc4c(N5CCCC6(CCC6O)C5)nc(OC[C@@]56CCCN5C[C@H](F)C6)nc4c3F)c12` (single isomer, unassigned) [Example 49], for which the IC50 at KRAS G12D [1] was determined as 7 nM; against KRAS G12D [2] it was 13 nM; in the assay with p-ERK (AsPC-1 cells) (setting [3]), 0.576 µM.

On to `CCc1c(F)ccc2cc(O)cc(-c3ncc4c(N5CCCC6(C5)CC6(F)F)nc(OC[C@@]56CCCN5C[C@H](F)C6)nc4c3F)c12` (stereo partly drawn) [Example 44, 4-(4-(1,1-Difluoro-5-azaspiro[2.5]octan-5-yl)-8-fluoro-2-(((2R,7aS)-2-fluorotetrahydro-1H-pyrrolizin-7a(5H)-yl)methoxy)pyrido[4,3-d]pyrimidin-7-yl)-5-ethyl-6-fluoronaphthalen-2-ol], for which the IC50 is 3 nM on KRAS G12D [1], 3 nM at KRAS G12D [2] and 0.252 µM in the assay with p-ERK (AsPC-1 cells) (setting [3]).

Consider `CCc1c(F)ccc2cc(O)cc(-c3ncc4c(N5CCC6(CC(O)C6)C5)nc(OC[C@@]56CCCN5C[C@H](F)C6)nc4c3F)c12` (stereo partly drawn) [Example 37, 6-(7-(8-Ethyl-7-fluoro-3-hydroxynaphthalen-1-yl)-8-fluoro-2-(((2R,7aS)-2-fluorotetrahydro-1H-pyrrolizin-7a(5H)-yl)methoxy)pyrido[4,3-d]pyrimidin-4-yl)-6-azaspiro[3.4]octan-2-ol], for which the IC50 at KRAS G12D [1] was found to be 85 nM; at KRAS G12D [2] it was 38 nM; with p-ERK (AsPC-1 cells) (setting [3]) it was 2.53 µM.

Consider `CCc1c(F)ccc2cccc(-c3ncc4c(N5CCCC6(CNC(=O)C6)C5)nc(OC[C@@]56CCCN5C[C@H](F)C6)nc4c3F)c12` (stereo partly drawn) [Example 30, 7-(7-(8-Ethyl-7-fluoronaphthalen-1-yl)-8-fluoro-2-(((2R,7aS)-2-fluorotetrahydro-1H-pyrrolizin-7a(5H)-yl)methoxy)pyrido[4,3-d]pyrimidin-4-yl)-2,7-diazaspiro[4.5]decan-3-one], for which the results for the IC50 on KRAS G12D [1], on KRAS G12D [2] and in the assay with p-ERK (AsPC-1 cells) (setting [3]) were 19 nM, 16 nM and 1.98 µM, respectively.

With `CCc1c(F)ccc2cc(O)cc(-c3ncc4c(N5CCCC6(COC(=O)N6)C5)nc(OC[C@@]56CCCN5C[C@H](F)C6)nc4c3F)c12` (stereo partly drawn) [Example 40, 7-(7-(8-Ethyl-7-fluoro-3-hydroxynaphthalen-1-yl)-8-fluoro-2-(((2R,7aS)-2-fluorotetrahydro-1H-pyrrolizin-7a(5H)-yl)methoxy)pyrido[4,3-d]pyrimidin-4-yl)-3-oxa-1,7-diazaspiro[4.5]decan-2-one], the IC50 on KRAS G12D [1] is 3 nM; at KRAS G12D [2], 4 nM; in the assay on p-ERK (AsPC-1 cells) (setting [3]), 4.32 µM.

For `CCc1c(F)ccc2cc(O)cc(-c3ncc4c(N5CC(C)(O)CC6(CC6)C5)nc(OC[C@@]56CCCN5C[C@H](F)C6)nc4c3F)c12` (stereo partly drawn) [Example 19, 5-(7-(8-Ethyl-7-fluoro-3-hydroxynaphthalen-1-yl)-8-fluoro-2-(((2R,7aS)-2-fluorotetrahydro-1H-pyrrolizin-7a(5H)-yl)methoxy)pyrido[4,3-d]pyrimidin-4-yl)-7-methyl-5-azaspiro[2.5]octan-7-ol], the IC50 was 5 nM on KRAS G12D [1], 6 nM on KRAS G12D [2] and 0.341 µM in the assay on p-ERK (AsPC-1 cells) (setting [3]).

For the molecule `CCc1c(F)ccc2cc(O)cc(-c3ncc4c(N5CCOCC6(CC(=O)N6)C5)nc(OC[C@@]56CCCN5C[C@H](F)C6)nc4c3F)c12` (stereo partly drawn) [Example 53, 9-(7-(8-Ethyl-7-fluoro-3-hydroxynaphthalen-1-yl)-8-fluoro-2-(((2R,7aS)-2-fluorotetrahydro-1H-pyrrolizin-7a(5H)-yl)methoxy)pyrido[4,3-d]pyrimidin-4-yl)-6-oxa-1,9-diazaspiro[3.6]decan-2-one], the IC50 was determined as 2 nM on KRAS G12D [1], 2 nM on KRAS G12D [2] and 0.182 µM with p-ERK (AsPC-1 cells) (setting [3]).

Regarding `Oc1cc(-c2ncc3c(N4CCCC5(CCO5)C4)nc(OC[C@@]45CCCN4C[C@H](F)C5)nc3c2F)c2c(Cl)cccc2c1` (single isomer, unassigned) [Example 59], the IC50 was determined as 3 nM at KRAS G12D [1], 2 nM on KRAS G12D [2] and 0.006 µM in the assay with p-ERK (AsPC-1 cells) (setting [3]).

Regarding `CCc1c(F)ccc2cc(O)cc(-c3ncc4c(N5CCCC6(COC(=O)O6)C5)nc(OC[C@@]56CCCN5C[C@H](F)C6)nc4c3F)c12` (single isomer, unassigned) [Example 68], the values for the half-maximal inhibitory concentration (IC50) at KRAS G12D [1], against KRAS G12D [2] and in the assay with p-ERK (AsPC-1 cells) (setting [4]) were 23 nM, 11 nM and 1.58 µM, respectively.

Turning to `CCc1c(F)ccc2cc(O)cc(-c3ncc4c(N5CCCC6(CCC(=O)N6)C5)nc(OC[C@@]56CCCN5C[C@H](F)C6)nc4c3F)c12` (stereo partly drawn) [Example 28, 7-(7-(8-Ethyl-7-fluoro-3-hydroxynaphthalen-1-yl)-8-fluoro-2-(((2R,7aS)-2-fluorotetrahydro-1H-pyrrolizin-7a(5H)-yl)methoxy)pyrido[4,3-d]pyrimidin-4-yl)-1,7-diazaspiro[4.5]decan-2-one], the values for the IC50 at KRAS G12D [1], against KRAS G12D [2] and in the assay with p-ERK (AsPC-1 cells) (setting [3]) were 3 nM, 5 nM and 0.923 µM, respectively.

Consider `C#Cc1c(F)ccc2cc(O)cc(-c3ncc4c(N5CCCC6(CNC(=O)O6)C5)nc(OC[C@@]56CCCN5C[C@H](F)C6)nc4c3F)c12` (single isomer, unassigned) [Example 17], for which the IC50 stood at 1 nM at KRAS G12D [1], 1 nM against KRAS G12D [2] and 0.123 µM with p-ERK (AsPC-1 cells) (setting [3]).

Take `C#Cc1c(F)ccc2cc(O)cc(-c3ncc4c(N5CCCC6(CCS(=O)(=O)C6)C5)nc(OC[C@@]56CCCN5C[C@H](F)C6)nc4c3F)c12` (single isomer, unassigned) [Example 36]: the values for the IC50 on KRAS G12D [1], on KRAS G12D [2] and in the assay with p-ERK (AsPC-1 cells) (setting [3]) were 2 nM, 2 nM and 1.11 µM, respectively.

Turning to `Oc1cc(-c2ncc3c(N4CCCC5(CC(O)C5)C4)nc(OC[C@@]45CCCN4C[C@H](F)C5)nc3c2F)c2c(F)c(F)ccc2c1` (single isomer, unassigned) [Example 11], the concentration for half-maximal inhibition (IC50) on KRAS G12D [1] was 2 nM; against KRAS G12D [2] it was 2 nM; in the assay on p-ERK (AsPC-1 cells) (setting [3]), 0.119 µM.

Take `CCc1c(F)ccc2cc(O)cc(-c3ncc4c(N5CCCC6(CC(=O)N6)C5)nc(OC[C@@]56CCCN5C[C@H](F)C6)nc4c3F)c12` (single isomer, unassigned) [Example 10]: the IC50 at KRAS G12D [1] is 1 nM; on KRAS G12D [2], 2 nM; in the assay with p-ERK (AsPC-1 cells) (setting [4]), 0.044 µM.

Turning to `CCc1c(F)ccc2cc(O)cc(-c3ncc4c(N5CCCC6(COC(=O)O6)C5)nc(OC[C@@]56CCCN5C[C@H](F)C6)nc4c3F)c12` (single isomer, unassigned) [Example 67], the IC50 was determined as 4 nM on KRAS G12D [1], 2 nM against KRAS G12D [2] and 0.06 µM in the assay with p-ERK (AsPC-1 cells) (setting [4]).

As for `Oc1cc(-c2ncc3c(N4CCCC5(CC(O)C5)C4)nc(OC[C@@]45CCCN4C[C@H](F)C5)nc3c2F)c2c(F)c(F)ccc2c1` (single isomer, unassigned) [Example 12], the IC50 on KRAS G12D [1] came to 2 nM; against KRAS G12D [2] it was 2 nM; with p-ERK (AsPC-1 cells) (setting [4]) it was 0.121 µM.

For the molecule `O=C1NCC2(CCCN(c3nc(OC[C@@]45CCCN4C[C@H](F)C5)nc4c(F)c(-c5cc(O)cc6ccc(F)c(F)c56)ncc34)C2)O1` (single isomer, unassigned) [Example 18], the IC50 at KRAS G12D [1] was found to be 1 nM; against KRAS G12D [2], 1 nM; in the assay with p-ERK (AsPC-1 cells) (setting [3]), 0.31 µM.

For the molecule `CCc1c(F)ccc2cc(O)cc(-c3ncc4c(N5CC(O)CC6(CC6)C5)nc(OC[C@@]56CCCN5C[C@H](F)C6)nc4c3F)c12` (single isomer, unassigned) [Example 3], the IC50 is 1 nM on KRAS G12D [1], 2 nM against KRAS G12D [2] and 0.034 µM in the assay on p-ERK (AsPC-1 cells) (setting [3]).
